Data on three compounds can be found in patent US20210330672A1, “USE OF BCL6 INHIBITORS FOR TREATING AUTOIMMUNE DISEASES” (TEQLA THERAPEUTICS INC., priority 2018, published 2021).

The subject of assay [1] is germinal centers of the spleen. Briefly: IHC with PNA staining of spleen as a measure of germinal center activity in KLH-immunized mice. It is filed as in vivo, C57BL/6 mice. The note with it: spleen Day 14; for Staining Intensity, Group Mean: PNA IHC, KLH + Vehicle group 2.4; for % PNA-Positive Staining of Germinal Center, Group Mean: KLH + Vehicle group 42%. The protocol: (§1) Experimental animals: Female C57BL/6 mice were purchased from Envigo (Livermore, Calif.) to provide 8- to 10-week-old animals at the time of immunization. IgG measurements were performed using Innovative Research KLH IgG ELISA kit. Germinal center staining was performed on Dako autostainer using procedures well known in the art.
(§2) On Day 0, animals of Groups 2-6 (n=10 each) were immunized by intraperitoneal (IP) injection with 0.2 mL (0.5 mg) per mouse of KLH, a dose determined to be optimal for IP administration without adjuvant. Mice from Group 1 (n=5) were sham-immunized by IP injection of 0.2 mL PBS per mouse.
(§3) Starting on Day 0 (immediately post-immunization) and continuing through Day 13 (i.e., 14 days total), animals in Group 1, 2, and 4-6 were injected IP once daily (QD) with vehicle, 30 mg/kg Compound 1, 10 mg/kg Compound 1, or 100 mg/kg Compound 2; animals in Group 3 were injected IP once weekly (QW) with 50 mg/kg CP. All doses were administered by IP injection at 5 mL/kg at approximately the same time (±1 h) each day.
(§4) On Day 14 (at approximately 24 hours after the final dose administration), all animals were subjected to terminal cardiocentesis and euthanized. Following clotting and processing, the resulting serum samples were flash-frozen and stored at −80° C. pending analysis by enzyme-linked immunosorbent assay (ELISA). The spleen was harvested from each mouse and split into two. One half of each spleen was collected for immunohistochemical (IHC) analysis of germinal center activity using peanut agglutinin (PNA) staining. Single-cell suspensions were collected from the other spleen halves and stored in DMSO cell-freezing medium. These samples were to be used for optional FACS analysis. Remaining tissues were discarded without further evaluation.
(§5) Statistical analysis: Descriptive and inferential analyses were performed using the corresponding functions of Excel 2010 (Microsoft, Redmond, Wash.). Inferential analysis consisted of t-test comparisons (two-tailed, non-paired, heteroscedasticity assumed) between groups as indicated. Values of p<0.05 were considered statistically significant.
Immunohistochemical (IHC) Staining with Peanut Agglutinin (PNA) as a Measure of Germinal Center Activity. IHC with PNA staining was used to determine the levels of positive staining in the germinal centers of the spleen.

The subject of the next assay is KLH-specific IgG. Briefly: KLH-specific serum IgG (ELISA) after in vivo treatment of KLH-immunized mice. Also noted: species or system C57BL/6 mice. Conditions: for Serum IgG Level, Day 14, Group Mean: KLH-immunized mice, KLH + Vehicle group 223879. As for the experimental part:
as §1, §2, §3, §4, §5
Results:KLH-specific IgG Levels. ELISA (performed as experimental replicates) was used to determine the levels of immunoglobulin G (IgG) specific for KLH in the terminal serum samples.
For orientation: ELISA stands for enzyme-linked immunosorbent assay.

The structures appear in SMILES notation.

Regarding `CNC(=O)COc1cc2cc(Nc3nc(N4C[C@H](C)C[C@H](C)C4)ncc3Cl)ccc2n(C)c1=O` [Compound 1, 2-((6-((5-chloro-2-((3R,5S)-3,5-dimethylpiperidin-1-yl)pyrimidin-4-yl)amino)-1-methyl-2-oxo-1,2-dihydroquinolin-3-yl)oxy)-N-methylacetamide], the “Staining Intensity, Group Mean” value in assay [1] (10 mpk IP once daily) worked out at 1.2; in assay [1] (30 mpk IP once daily), 1.5. In addition, the “% PNA-Positive Staining of Germinal Center, Group Mean” value (“% PNA-Positive Staining” below) in assay [1] (10 mpk IP once daily) and in assay [1] (30 mpk IP once daily) was 12% each time. Further, the results for the “Serum IgG Level, Day 14, Group Mean” value with KLH-specific IgG (10 mpk IP once daily Days 0-13) and in the assay with KLH-specific IgG (30 mpk IP once daily Days 0-13) were 100997 U/mL and 103098 U/mL, respectively.

`O=P1(N(CCCl)CCCl)NCCCO1` (stereo not drawn) [CP, cyclophosphamide, reference compound]: in assay [1] (50 mpk IP once weekly), the “Staining Intensity, Group Mean” value came out at 1.3 and the “% PNA-Positive Staining” value was found to be 29%. The “attenuation of immune response to KLH (serum IgG and PNA staining of splenic germinal centers)” value in the assay on KLH-specific IgG (50 mg/kg, IP, once weekly over 14 days) was “nominal but non-significant attenuation”. Further, in the assay on KLH-specific IgG (50 mpk IP once weekly over 14 days), the “Serum IgG Level, Day 14, Group Mean” value is 161482 U/mL.

On to `CNC(=O)COc1cc2cc(Nc3nc(N4CCC(C(=O)N(C)C)CC4)ncc3Cl)cc(OC)c2n(C)c1=O` [Compound 2, 1-(5-chloro-4-((8-methoxy-1-methyl-3-(2-(methylamino)-2-oxoethoxy)-2-oxo-1,2-dihydroquinolin-6-yl)amino)pyrimidin-2-yl)-N,N-dimethylpiperidine-4-carboxamide], for which, in assay [1] (100 mpk IP once daily), the “Staining Intensity, Group Mean” value was determined as 1.1 and the “% PNA-Positive Staining” value was 7%. Also, in the assay on KLH-specific IgG (100 mg/kg, IP, once daily over 14 days), the “attenuation of immune response to KLH (reduced IgG levels and germinal center activity)” value is “highly significant attenuation”. In addition, in the assay with KLH-specific IgG (10 or 30 mg/kg, IP, once daily over 14 days, no observable dose response), the “attenuation of immune response to KLH” value was “less significant attenuation”. Moreover, in the assay on KLH-specific IgG (100 mpk IP once daily Days 0-13), the “Serum IgG Level, Day 14, Group Mean” value was 41503 U/mL.
